These are literature values, as cited in patent US20130216646A1, “Nanoparticles of Nutritional and Pharmaceutical Compounds” (priority 2011, published 2013).

Like-named read-outs stand apart in the source and are kept apart here.

The conditions of series [1]: dogs.
For series [2] the following is noted: for Sojourn time: another study.
The conditions of series [3]: in vivo.

`[Ca+2]` [calcium]: under “rat intestine, another study”, the “Share of calcium absorption occurring in the duodenum” value is 7%, the “Share of calcium absorption occurring in the ileum” value is on record as 65% and the “Share of calcium absorption occurring in the jejunum” value is given as 17%. Further, where the note is “rat small intestine, one study”, the “Share of calcium absorption occurring in the duodenum” value is 8%, the “Share of calcium absorption occurring in the ileum” value is reported as 88% and the “Share of calcium absorption occurring in the jejunum” value is on record as 4%. For the same molecule, in series [1], the “Share of calcium absorption occurring in the duodenum” value was 4%, the “Share of calcium absorption occurring in the ileum” value is recorded as 80% and the “Share of calcium absorption occurring in the jejunum” value was 16%. Further, in series [2] (rat duodenum), the Transit half-time is listed as 6 min and the Sojourn time is 2.2 min. Moreover, in series [2] (rat ileum), the Transit half-time is 102 min and the Sojourn time is reported as 121.5 min. Further, the “Share of overall calcium absorption accounted for by the small intestine” value in series [3] is recorded as “about 90%”.
